The record followed here is patent US11000485B2, “Substituted hydroxystilbenes as AhR and Nrf2 modulators and their therapeutic applications” (Resolvex Pharmaceuticals Inc., priority 2017, dated 2021).

Each structure is given as a SMILES string.

A word on the EC50: it is the concentration giving half of the maximal effect.

The test system of one test is MDA-MB-435 cells. Put plainly: Cell proliferation ([3H]-thymidine). Particulars: Homo sapiens, MDA-MB-435, 48 hours, read-out: Anti-proliferation IC50, MDA-MB-435. It is filed as cell-based. Here is the method: Cells were cultured in RPMI-1640 containing 10% FBS (Jurkat) or DMEM containing 10% FBS (MDA-MB-435). On Day 1, 1×10^4 cells were seeded into one well of a 96-well white ISOPLATE™ with 0.5% FBS. The cells were cultured at 5% CO2, 37° C. overnight. On Day 2, the diluted test compounds were added into each well in a total volume of 100 μL of cell culture medium. For each cell line were set up three wells containing cells and only diluted DMSO as a negative (vehicle) control, and three wells without cells but containing the same volume and type of cell culture medium as background control. The cells were incubated at 5% CO2, 37° C. for 24 hours. On Day 3, 1 μL of [^3H]-thymidine was added into each well and incubation at 5% CO2, 37° C. was continued for another 24 hours. On Day 4, 30 μL of 50% TCA was added into each well and was incubated at 4° C. for 4 hours. Plates were washed with ddH2O four times and then air dried for 30 minutes followed by the addition of 100 μL of scintillation fluid into each well. The radioactivity was read using MICROBETA TRILUX™. The percentage of inhibition was calculated using the formula [1-(experiment reading-background reading)/(negative control reading-background reading)]×100.

For test [1], the target named is T1, recombinant human PDE4B1 enzyme (Homo sapiens, UniProt Q07343).
T1 construct: host or cells: baculoviral system
T1 sequence (Q07343 whole entry): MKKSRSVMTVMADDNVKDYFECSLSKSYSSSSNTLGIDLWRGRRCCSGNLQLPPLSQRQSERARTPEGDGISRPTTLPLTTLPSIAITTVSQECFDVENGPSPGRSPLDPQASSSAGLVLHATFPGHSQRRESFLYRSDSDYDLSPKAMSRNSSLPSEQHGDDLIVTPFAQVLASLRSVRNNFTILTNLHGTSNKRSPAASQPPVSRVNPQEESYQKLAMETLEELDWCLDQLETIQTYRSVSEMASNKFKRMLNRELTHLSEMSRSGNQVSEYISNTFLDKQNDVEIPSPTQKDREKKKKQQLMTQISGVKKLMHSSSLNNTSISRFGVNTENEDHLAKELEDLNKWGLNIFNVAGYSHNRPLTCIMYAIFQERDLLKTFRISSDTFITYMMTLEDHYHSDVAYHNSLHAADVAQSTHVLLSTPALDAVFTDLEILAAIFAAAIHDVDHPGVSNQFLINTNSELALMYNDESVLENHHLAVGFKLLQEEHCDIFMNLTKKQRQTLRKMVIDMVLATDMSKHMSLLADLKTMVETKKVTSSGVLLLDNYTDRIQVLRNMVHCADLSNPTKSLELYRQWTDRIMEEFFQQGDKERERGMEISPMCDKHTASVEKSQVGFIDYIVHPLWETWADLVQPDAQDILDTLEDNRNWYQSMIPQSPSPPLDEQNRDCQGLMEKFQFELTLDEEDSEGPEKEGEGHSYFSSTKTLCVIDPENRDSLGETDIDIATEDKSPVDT
Briefly: PDE4B1 radiometric enzyme assay. The conditions noted are these: read-out: Inhibitory activity on PDE4B1 enzyme. It is filed as biochemical. The procedure: Assays were performed using recombinant human PDE4B1 enzyme expressed in a baculoviral system. […] The reactions were performed at 1 μM of cAMP. The test articles were each tested at 0.2 μM and 20 μM in triplicates.

For the next test, the system named is IL-1α. Briefly: BioMap BF4T lung epithelium inflammation system. Particulars: stimulated human primary bronchial epithelial cells, 24 hours, ELISA. It is filed as cell-based. Here is the method:
(§1) The compounds were assayed in the Eurofin's BioMap system (BF4T Cells) which models Th2-type lung inflammation, an environment that promotes the recruitment of eosinophils, mast cells, neutrophils, and basophils as well as effector memory T cells. This system is relevant for allergy and asthma, pulmonary fibrosis, as well as chronic obstructive pulmonary disorder (COPD) exacerbations. The human primary bronchial epithelial cells were cultured and stimulated to induce the inflammatory factors responsible for the pathogenesis of various inflammatory diseases in the lung. The test compounds were added to the in vitro model culture system and incubated for 24 hours. The supernatants were collected and assayed for the protein production of various molecules using ELISA assays. The biomarkers assayed included MCP-1, Eotaxin-3, VCAM-1, ICAM-1, CD90, IL-8, IL1α, Keratin 8/18, MMP1, MMP-3, MMP-9, PAI-1, SRB, tPA, and uPA.
In general terms: In an ELISA, binding on a coated surface is turned into a signal by an enzyme label.

For a further test, the system named is VCAM-1. Briefly: BioMap BF4T lung epithelium inflammation system. The format is cell-based. The conditions noted are these: stimulated human primary bronchial epithelial cells, 24 hours, ELISA. The procedure: as §1
The next test relates to ICAM-1. Put plainly: BioMap BF4T lung epithelium inflammation system. The format is cell-based. The conditions noted are these: stimulated human primary bronchial epithelial cells, 24 hours, ELISA. Here is the method: as §1
A further test has as its system IL-8. Briefly: BioMap BF4T lung epithelium inflammation system. The conditions noted are these: stimulated human primary bronchial epithelial cells, 24 hours, ELISA. The format is cell-based. Here is the method: as §1
For test [2], the target named is T2, Aryl Hydrocarbon Receptor (AhR) (Homo sapiens, UniProt P35869).
T2 construct: host or cells: AhR-CYP1A1-bla LS-180
T2 sequence (P35869 11-848): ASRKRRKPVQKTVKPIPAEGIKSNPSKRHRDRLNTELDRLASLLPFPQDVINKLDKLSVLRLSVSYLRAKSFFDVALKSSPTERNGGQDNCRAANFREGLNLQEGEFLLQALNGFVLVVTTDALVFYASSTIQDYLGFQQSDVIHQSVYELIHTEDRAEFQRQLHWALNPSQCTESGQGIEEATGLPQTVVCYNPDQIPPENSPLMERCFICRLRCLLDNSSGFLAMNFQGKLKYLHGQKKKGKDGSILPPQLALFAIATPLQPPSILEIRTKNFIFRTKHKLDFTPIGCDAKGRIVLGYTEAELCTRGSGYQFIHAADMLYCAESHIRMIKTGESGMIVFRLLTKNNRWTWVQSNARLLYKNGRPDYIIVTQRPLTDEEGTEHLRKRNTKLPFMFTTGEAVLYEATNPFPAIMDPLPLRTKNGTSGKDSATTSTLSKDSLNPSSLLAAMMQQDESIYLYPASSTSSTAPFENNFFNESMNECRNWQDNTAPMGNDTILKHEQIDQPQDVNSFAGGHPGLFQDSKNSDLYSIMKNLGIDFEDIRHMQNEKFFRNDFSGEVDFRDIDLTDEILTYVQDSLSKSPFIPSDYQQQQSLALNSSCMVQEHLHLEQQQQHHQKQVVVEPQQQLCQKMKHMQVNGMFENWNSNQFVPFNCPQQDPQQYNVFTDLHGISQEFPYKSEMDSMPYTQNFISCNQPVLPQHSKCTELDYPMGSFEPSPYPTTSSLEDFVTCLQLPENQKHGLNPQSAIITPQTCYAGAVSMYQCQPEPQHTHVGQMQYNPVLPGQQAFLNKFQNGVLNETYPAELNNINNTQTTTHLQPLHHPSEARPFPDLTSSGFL
Put plainly: AhR-CYP1A1-bla LS-180 beta-lactamase reporter assay. It is filed as cell-based. The conditions noted are these: AhR-CYP1A1-bla LS-180 cells, 24 hours; read-out: EC50, AhR activation. Here is the method: This assay was performed using Invitrogen's CellSensor® cell line AhR-CYP1A1-bla LS-180 with GeneBLAzer® Beta-lactamase (bla) Reporter Technology as the detection method. When the AhR-CYP1A1 pathway is activated or inhibited, Beta-lactamase reporter activity is modulated and is measured quantitatively and selectively with the LiveBLAzer™-FRET B/G Loading Substrate.
Briefly, the AhR-CYP1A1-bla LS-180 cells were grown in Growth Media (MEM, 10% FBS, 0.1 mM NEAA, 1 mM Sodium Pyruvate). Cells were dissociated and resuspended in Assay Media (OPTI-MEM, 0.5% dialyzed FBS, 0.1 mM NEAA, 1 mM Sodium Pyruvate). Around 2×10^4 cells in a volume of 32 μL of assay media was added to each well of a 384 well Poly-D-Lysine assay plate. After incubation for 16 hours at 37° C. in a humidified incubator, 4 μL of a 10× serial dilution of test compounds were added to appropriate wells of the plate. The plate was incubated for 24 hours at 37° C. For the reporter activity assay, 8 μL of 1 μM Substrate was added to each well and the plate was incubated for 2 hours at room temperature. The plate was read on a fluorescence plate reader.
On the technique in general: Reporter assays use an easily measured gene product as a stand-in for the process of interest.

For `CC(C)c1ccc(/C=C/c2ccc(F)cc2)cc1O` [Compound 2, 3-hydroxy-4-isopropyl-4′-fluoro-(E)-stilbene], the IC50 in the test with MDA-MB-435 cells is 6.02 µM. In test [1], the inhibition at 0.2 µM was in the range of 15 to 30% and the inhibition at 20 µM is more than 50%. In the test with IL-1α, the “effect on production of IL-1α” value is recorded as “suppress the production”. For the same compound, in the test with VCAM-1, the “effect on production of VCAM-1” value was “suppress the production”. Also, in the test with ICAM-1, the “effect on production of ICAM-1” value is recorded as “suppress the production”. In addition, the “effect on production of IL-8” value with IL-8 is on record as “suppress the production”. The 50% effective concentration (EC50) in test [2] came out at 0.027 µM.
